Measured values: patent US20050288347A1, “Certain triazole-based compounds, compositions, and uses thereof” (priority 2004, published 2005)
Entries after “also recorded” stand apart in the source; their conditions may differ.

target: protein kinase; test: HTS ATP-utilizing enzyme assay, off-chip mobility-shift format (Caliper HTS 250); format: biochemical, human; details: kinase(s) for which the compound exhibits protein kinase inhibitory activity; test compound 10 μM; active = greater than three-sigma from the mean activity of inactive compounds
How it was run: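 Single-point screen at 10 μM compound in HEPES pH 7.5 buffer with Triton X-100 and BSA, 2.5 h at 20–22 °C. Substrate-to-phosphopeptide ratio measured by off-chip microfluidic mobility shift; EDTA wells as 100% and DMSO wells as 0% control, hits called at three-sigma limits.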

| SMILES | Kinase |
| --- | --- |
| CCn1c(SC(C)C(=O)Nc2ccccc2C)nnc1-c1ccc([N+](=O)[O-])cc1 (stereo not drawn) [2-(4-ethyl-5-(4-nitrophenyl)-4H-1,2,4-triazol-3-ylthio)-N-o-tolylpropanamide] | DAPK1 |
| CCc1ccc(OCc2nnc(SCC#N)n2CC)cc1 [2-(4-ethyl-5-((4-ethylphenoxy)methyl)-4H-1,2,4-triazol-3-ylthio)acetonitrile] | AURORA-A |
| CCn1c(SCC(=O)Nc2nccs2)nnc1-c1ccccc1 [2-(4-ethyl-5-phenyl-4H-1,2,4-triazol-3-ylthio)-N-(thiazol-2-yl)acetamide] | GSK3-β; also recorded: GSK3-α; also recorded: CHEK2 |
| Cn1cnnc1SCC(=O)N1c2ccccc2Sc2ccccc21 [2-(4-methyl-4H-1,2,4-triazol-3-ylthio)-1-(10H-phenothiazin-10-yl)ethanone] | LCK |
| Cc1ccc(OCc2nnc(SC(C)C(=O)O)n2-c2ccccc2)cc1 (stereo not drawn) [2-(4-phenyl-5-(p-tolyloxymethyl)-4H-1,2,4-triazol-3-ylthio)propanoic acid] | AURORA-A |
| N#CCSc1nnc(-c2cccnc2)n1-c1ccccc1 [2-(4-phenyl-5-(pyridin-3-yl)-4H-1,2,4-triazol-3-ylthio)acetonitrile] | AURORA-A |
| O=C(CSc1nnc[nH]1)c1ccc(O)cc1O [2-(4H-1,2,4-triazol-3-ylthio)-1-(2,4-dihydroxyphenyl)ethanone] | GSK3-α |
| O=C(CSc1nnc[nH]1)N1c2ccccc2Sc2ccccc21 [2-(4H-1,2,4-triazol-3-ylthio)-1-(10H-phenothiazin-10-yl)ethanone] | LCK |
| CSCCc1nnc(SCC(=O)O)[nH]1 [2-(5-(2-(methylthio)ethyl)-4H-1,2,4-triazol-3-ylthio)acetic acid] | GSK3-α; also recorded: GSK3-β |
| CSCCc1nnc(SCC#N)[nH]1 [2-(5-(2-(methylthio)ethyl)-4H-1,2,4-triazol-3-ylthio)acetonitrile] | GSK3-α |
| O=C(O)CSc1nnc(-c2ccc(Cl)c(Cl)c2)[nH]1 [2-(5-(3,4-dichlorophenyl)-4H-1,2,4-triazol-3-ylthio)acetic acid] | GSK3-α; also recorded: GSK3-B β; also recorded: AURORA-A |
| NC(=O)CSc1nnc(-c2ccc(S(=O)(=O)N3CCCCC3)cc2)[nH]1 [2-(5-(4-(piperidin-1-ylsulfonyl)phenyl)-4H-1,2,4-triazol-3-ylthio)acetamide] | GSK3-β; also recorded: AURORA-A; also recorded: GSK3-α |
| O=C(O)CSc1nnc(-c2ccc(OC(F)(F)F)cc2)[nH]1 [2-(5-(4-(trifluoromethoxy)phenyl)-4H-1,2,4-triazol-3-ylthio)acetic acid] | GSK3-β; also recorded: GSK3-α; also recorded: DYRK2 |
| N#CCSc1nnc(-c2ccc(OC(F)(F)F)cc2)[nH]1 [2-(5-(4-(trifluoromethoxy)phenyl)-4H-1,2,4-triazol-3-ylthio)acetonitrile] | DYRK2; also recorded: FLT-3; also recorded: AURORA-A |
| N#CCSc1nnc(-c2ccc(F)cc2)[nH]1 [2-(5-(4-fluorophenyl)-4H-1,2,4-triazol-3-ylthio)acetonitrile] | FLT-3; also recorded: DYRK2; also recorded: GSK3-β |
| Cn1c(SCC#N)nnc1-c1ccc(O)cc1 [2-(5-(4-hydroxyphenyl)-4-methyl-4H-1,2,4-triazol-3-ylthio)acetonitrile] | GSK3-β; also recorded: GSK3-α; also recorded: DAPK1 |
| COc1ccc(-c2nnc(SCC#N)[nH]2)cc1 [2-(5-(4-methoxyphenyl)-4H-1,2,4-triazol-3-ylthio)acetonitrile] | FLT-3; also recorded: DYRK2; also recorded: AURORA-A |
| O=C(CSc1nnc(-c2ccc([N+](=O)[O-])cc2)[nH]1)c1ccccc1 [2-(5-(4-nitrophenyl)-4H-1,2,4-triazol-3-ylthio)-1-phenylethanone] | FLT-3; also recorded: GSK3-β; also recorded: AURORA-A |
| O=C(O)CSc1nnc(-c2ccc([N+](=O)[O-])cc2)[nH]1 [2-(5-(4-nitrophenyl)-4H-1,2,4-triazol-3-ylthio)acetic acid] | GSK3-α; also recorded: GSK3-β; also recorded: DYRK2 |
| O=C(CSc1nnc(COc2ccc(Cl)cc2)[nH]1)c1ccccc1 [2-(5-((4-chlorophenoxy)methyl)-4H-1,2,4-triazol-3-ylthio)-1-phenylethanone] | GSK3-α; also recorded: FLT-3; also recorded: GSK3-β |
| O=C(O)CSc1nnc(COc2ccc(Cl)cc2)[nH]1 [2-(5-((4-chlorophenoxy)methyl)-4H-1,2,4-triazol-3-ylthio)acetic acid] | GSK3-B β; also recorded: GSK3-α |
| CCn1c(CNc2ccc(C)cc2)nnc1SCC#N [2-(5-((p-toluidino)methyl)-4-ethyl-4H-1,2,4-triazol-3-ylthio)acetonitrile] | PDGFRR-α and CDK1 |
| O=C(CSc1nnc(-c2ccco2)n1-c1ccccc1)NCCc1ccccc1 [2-(5-(furan-2-yl)-4-phenyl-4H-1,2,4-triazol-3-ylthio)-N-phenethylacetamide] | AKT1 |
| N#CCSc1nnc(-c2ccco2)n1-c1ccccc1 [2-(5-(furan-2-yl)-4-phenyl-4H-1,2,4-triazol-3-ylthio)acetonitrile] | CHEK2 |
| CC(Sc1nnc(COc2ccccc2)n1-c1ccccc1)C(=O)O (stereo not drawn) [2-(5-(phenoxymethyl)-4-phenyl-4H-1,2,4-triazol-3-ylthio)propanoic acid] | FYN |

Now from value to compound:

| Kinase | SMILES |
| --- | --- |
| SYK | CCn1c(SCC(=O)c2ccccc2)nnc1-c1cccnc1 [2-(4-ethyl-5-(pyridin-3-yl)-4H-1,2,4-triazol-3-ylthio)-1-phenylethanone] |
| LYNA | CCn1c(SC(C)C(=O)O)nnc1-c1cccnc1 (stereo not drawn) [2-(4-ethyl-5-(pyridin-3-yl)-4H-1,2,4-triazol-3-ylthio)propanoic acid] |
| PDGFRR-α | CCn1c(SCC(=O)Nc2ccccc2C)nnc1C(C)C [2-(4-ethyl-5-isopropyl-4H-1,2,4-triazol-3-ylthio)-N-o-tolylacetamide] |
| PDGFRR-α and FYN | Cn1c(SCC(N)=O)nnc1-c1ccc([N+](=O)[O-])cc1 [2-(4-methyl-5-(4-nitrophenyl)-4H-1,2,4-triazol-3-ylthio)acetamide] |
| AURORA-A | Cc1cccc(OCc2nnc(SC(C)C(=O)O)n2C)c1 (stereo not drawn) [2-(4-methyl-5-(m-tolyloxymethyl)-4H-1,2,4-triazol-3-ylthio)propanoic acid] |
| CSK | Cc1ccc(OCc2nnc(SCC#N)n2C)cc1 [2-(4-methyl-5-(p-tolyloxymethyl)-4H-1,2,4-triazol-3-ylthio)acetonitrile] |
| AURORA-A | CC(Sc1nnc(COc2ccccc2)n1C)C(=O)O (stereo not drawn) [2-(4-methyl-5-(phenoxymethyl)-4H-1,2,4-triazol-3-ylthio)propanoic acid] |
| PKA and MSK1 and AURORA-A | Cn1c(SCC(=O)c2ccccc2)nnc1-c1ccncc1 [2-(4-methyl-5-(pyridin-4-yl)-4H-1,2,4-triazol-3-ylthio)-1-phenylethanone] |
| AKT1 | Cn1c(SCC(N)=O)nnc1-c1ccncc1 [2-(4-methyl-5-(pyridin-4-yl)-4H-1,2,4-triazol-3-ylthio)acetamide] |
| AURORA-A | CC(Sc1nnc(-c2cccnc2)n1-c1ccccc1)C(=O)O (stereo not drawn) [2-(4-phenyl-5-(pyridin-3-yl)-4H-1,2,4-triazol-3-ylthio)propanoic acid] |
| FYN | COc1ccc(-c2nnc(SCC(=O)O)n2-c2ccccc2)cc1OC [2-(5-(3,4-dimethoxyphenyl)-4-phenyl-4H-1,2,4-triazol-3-ylthio)acetic acid] |
| DAPK1 and AKT1 | Cc1ccc(-n2c(SCC(=O)O)nnc2-c2ccc(Cl)cc2)cc1 [2-(5-(4-chlorophenyl)-4-p-tolyl-4H-1,2,4-triazol-3-ylthio)acetic acid] |
| GSK3-β; also recorded: MAPKAPK-2 | Cn1c(SCC(=O)O)nnc1-c1ccc(O)cc1 [2-(5-(4-hydroxyphenyl)-4-methyl-4H-1,2,4-triazol-3-ylthio)acetic acid] |
| GSK3-β and GSK3-α and INSR | NC(=O)CSc1nnc(-c2ccc(O)cc2)n1-c1ccccc1 [2-(5-(4-hydroxyphenyl)-4-phenyl-4H-1,2,4-triazol-3-ylthio)acetamide] |
| GSK3-β; also recorded: GSK3-α | O=C(O)CSc1nnc(-c2ccc(O)cc2)n1-c1ccccc1 [2-(5-(4-hydroxyphenyl)-4-phenyl-4H-1,2,4-triazol-3-ylthio)acetic acid] |
| PDK1 | COc1ccc(-c2nnc(SCC(N)=O)n2-c2ccccc2)cc1 [2-(5-(4-methoxyphenyl)-4-phenyl-4H-1,2,4-triazol-3-ylthio)acetamide] |
| DAPK1 | Cc1ccc(-n2c(SCC(=O)O)nnc2-c2ccc([N+](=O)[O-])cc2)cc1 [2-(5-(4-nitrophenyl)-4-p-tolyl-4H-1,2,4-triazol-3-ylthio)acetic acid] |
| HCK and CHEK2 | C=C(C)Cn1c(SCC(=O)O)nnc1-c1ccco1 [2-(5-(furan-2-yl)-4-(2-methylallyl)-4H-1,2,4-triazol-3-ylthio)acetic acid] |
| FYN | Cn1c(SCC(=O)N2CCOCC2)nnc1-c1ccco1 [2-(5-(furan-2-yl)-4-methyl-4H-1,2,4-triazol-3-ylthio)-1-morpholinoethanone] |
| AURORA-A | Cc1ccc(-n2c(SCC(=O)O)nnc2-c2cccnc2)cc1 [2-(5-(pyridin-3-yl)-4-p-tolyl-4H-1,2,4-triazol-3-ylthio)acetic acid] |

same assay, conditions: test compound 10 μM; active = activity greater than three-sigma from the mean of the predominately inactive population for that enzyme

| protein kinase against which the compound exhibits inhibitory activity (Table 3) | SMILES |
| --- | --- |
| CDK2-cyclinA and PRAK | COc1ccccc1-n1c(SCc2ccccc2Cl)nnc1-c1ccccc1O [2-(5-(2-chlorobenzylthio)-4-(2-methoxyphenyl)-4H-1,2,4-triazol-3-yl)phenol] |
| ROCK2 | COc1ccccc1-n1c(SCCO)nnc1-c1cccc(Cl)c1 [2-(5-(3-chlorophenyl)-4-(2-methoxyphenyl)-4H-1,2,4-triazol-3-ylthio)ethanol] |

| SMILES | protein kinase against which the compound exhibits inhibitory activity (Table 3) |
| --- | --- |
| OCCSc1nnc(-c2ccc(Cl)c(Cl)c2)[nH]1 [2-(5-(3,4-dichlorophenyl)-4H-1,2,4-triazol-3-ylthio)ethanol] | AURORA-A; also recorded: FLT-3; also recorded: CHEK2 |
